In ChEMBL document CHEMBL1201862, “PubChem BioAssay data set” (2004):
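Compound exposure: 48 hours, 5 concentrations, 96-well plates. GI50: concentration for 50% inhibition of growth.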 Calls of active or inactive are those of the source. No stated cut-off is given here; in the data, active = GI50 up to about 1.1 µM and inactive = higher.

Columns and labels:
Experiment in all cases: inhibition of tumour cell growth, NCI panel, 48 h
U-251 = system: U-251
KM12 = system: KM12
SF-295 = system: SF-295
IGROV-1 = system: IGROV-1
HT-29 = system: HT-29
SNB-19 = system: SNB-19
MCF7 = system: MCF7
EKVX = system: EKVX
HOP-92 = system: HOP-92
A498 = system: A498
SNB-75 = system: SNB-75
DU-145 = system: DU-145
HL-60 = system: HL-60
SF-268 = system: SF-268
NCI/ADR-RES = system: NCI/ADR-RES
SF-539 = system: SF-539
OVCAR-3 = system: OVCAR-3
MOLT-4 = system: MOLT-4
CCRF-CEM = system: CCRF-CEM
MDA-MB-231 = system: MDA-MB-231

Measured: GI50

C=C1CC(Cn2ccc(=O)[nH]c2=O)(c2ccc(OC)cc2)OC1=O (stereo not given)
inactive: U-251 22.3 µM | KM12 18.8 µM | SF-295 34.7 µM | IGROV-1 15.7 µM | HT-29 13.2 µM | SNB-19 > 68.4 µM | MCF7 4.43 µM | EKVX 19.5 µM | HOP-92 2.34 µM | A498 15.3 µM | SNB-75 > 10 µM | DU-145 17.4 µM | HL-60 2.35 µM | SF-268 23.9 µM | NCI/ADR-RES 16 µM | SF-539 18.6 µM | OVCAR-3 19.3 µM | MOLT-4 2.5 µM | CCRF-CEM 2.88 µM | MDA-MB-231 16.6 µM

O=c1oc2ccc3ccccc3c2cc1-c1nc2ccccc2o1
inactive: U-251 22.2 µM | KM12 27.3 µM | SF-295 26.2 µM | IGROV-1 12.7 µM | HT-29 20.7 µM | SNB-19 19.7 µM | MCF7 1.26 µM | EKVX 20.6 µM | HOP-92 16.4 µM | A498 25.9 µM | SNB-75 17.5 µM | DU-145 20.7 µM | HL-60 40.6 µM | SF-268 22.1 µM | NCI/ADR-RES 20 µM | SF-539 15.8 µM | OVCAR-3 15.3 µM | MOLT-4 35.2 µM | CCRF-CEM 37.7 µM | MDA-MB-231 16.8 µM

CN(CCNC(=O)c1cc(-c2ccccc2)nc2ccccc12)CCNC(=O)c1cc(-c2ccccc2)nc2ccccc12
inactive: U-251 8.75 µM | KM12 4.46 µM | SF-295 13.2 µM | IGROV-1 3.6 µM | HT-29 2.14 µM | SNB-19 > 60 µM | MCF7 3.87 µM | EKVX 15.9 µM | HOP-92 2.61 µM | A498 12.2 µM | SNB-75 7.53 µM | DU-145 12.5 µM | HL-60 4.7 µM | SF-268 8.51 µM | NCI/ADR-RES > 100 µM | SF-539 7.71 µM | OVCAR-3 23 µM | MOLT-4 4.17 µM | CCRF-CEM 4.69 µM | MDA-MB-231 > 50.4 µM

COc1cc2oc3c(c(=O)c2c(O)c1/C=C/C(C)C)CCC(C)(C)Oc1cc(O)ccc1-3
inactive: U-251 20.5 µM | KM12 7.41 µM | SF-295 13.3 µM | IGROV-1 17.7 µM | HT-29 7.13 µM | SNB-19 16.1 µM | MCF7 13.3 µM | EKVX 18.1 µM | HOP-92 17.6 µM | A498 19.1 µM | SNB-75 16 µM | DU-145 33.8 µM | HL-60 13.1 µM | SF-268 15.6 µM | NCI/ADR-RES 15.4 µM | SF-539 13.1 µM | OVCAR-3 15.6 µM | MOLT-4 13 µM | CCRF-CEM 17.3 µM | MDA-MB-231 16.6 µM

COc1ccc(-c2cc(O)c3nc4ccccc4n3c2)cc1
inactive: U-251 > 100 µM | KM12 > 100 µM | SF-295 > 100 µM | IGROV-1 71 µM | HT-29 > 100 µM | SNB-19 > 100 µM | MCF7 > 100 µM | EKVX > 100 µM | HOP-92 > 100 µM | A498 > 100 µM | SNB-75 > 100 µM | DU-145 > 100 µM | HL-60 > 100 µM | SF-268 > 100 µM | NCI/ADR-RES > 100 µM | SF-539 > 100 µM | OVCAR-3 > 100 µM | MOLT-4 > 100 µM | CCRF-CEM > 100 µM | MDA-MB-231 > 100 µM

CC[C@]1(Cc2ccc(OC)c(OC)c2)CN(S(=O)(=O)c2ccc(C)cc2)C[C@@H]1OC(C)=O
inactive: U-251 65.6 µM | KM12 > 100 µM | SF-295 38.5 µM | IGROV-1 85.5 µM | HT-29 96.8 µM | SNB-19 > 100 µM | MCF7 > 100 µM | EKVX > 100 µM | HOP-92 40.4 µM | A498 > 100 µM | SNB-75 41.9 µM | DU-145 > 100 µM | HL-60 > 100 µM | SF-268 > 100 µM | NCI/ADR-RES > 100 µM | SF-539 69.5 µM | OVCAR-3 67.8 µM | MOLT-4 > 100 µM | CCRF-CEM > 100 µM | MDA-MB-231 > 100 µM

O=C1Nc2ccccc2/C1=C\c1c(-c2ccccc2)nc2n1CCS2
inactive: U-251 20.5 µM | KM12 16.8 µM | SF-295 17.3 µM | IGROV-1 23 µM | HT-29 19.5 µM | SNB-19 28.5 µM | MCF7 12.5 µM | EKVX 17.7 µM | HOP-92 39.3 µM | A498 18.2 µM | SNB-75 12.1 µM | DU-145 13.6 µM | HL-60 18.2 µM | SF-268 26.5 µM | NCI/ADR-RES 23.1 µM | SF-539 18.7 µM | OVCAR-3 15.6 µM | MOLT-4 25.8 µM | CCRF-CEM 24.7 µM | MDA-MB-231 21.4 µM

C=C(C)[C@@H]1CC=C(CO)CC1 [PERILLYL ALCOHOL]
inactive: U-251 125 µM | KM12 316 µM | SF-295 266 µM | IGROV-1 574 µM | HT-29 136 µM | SNB-19 348 µM | MCF7 > 10 µM | EKVX 617 µM | HOP-92 117 µM | A498 548 µM | SNB-75 56 µM | DU-145 > 10 µM | HL-60 50.1 µM | SF-268 84.1 µM | NCI/ADR-RES > 10 µM | SF-539 501 µM | OVCAR-3 150 µM | MOLT-4 72.3 µM | CCRF-CEM 101 µM | MDA-MB-231 > 10 µM

Cc1ccc2cccc3c2c1CC1(C3=O)S(=O)(=O)OCCOS1(=O)=O
inactive: U-251 > 100 µM | KM12 > 100 µM | SF-295 > 100 µM | IGROV-1 > 100 µM | HT-29 > 100 µM | SNB-19 > 100 µM | MCF7 > 100 µM | EKVX > 100 µM | HOP-92 > 100 µM | A498 > 100 µM | SNB-75 > 100 µM | DU-145 > 100 µM | HL-60 > 100 µM | SF-268 > 100 µM | NCI/ADR-RES > 100 µM | SF-539 > 100 µM | OVCAR-3 > 100 µM | MOLT-4 > 100 µM | CCRF-CEM > 100 µM | MDA-MB-231 > 100 µM
